Source: US20240043531A1, “ANTI-CD47 MONOCLONAL ANTIBODY AND USE THEREOF” (Akeso Biopharma, Inc., priority 2021, published 2024)
Blank lines part the entries; values can stand above or below the molecule they belong to.

Columns and labels:
[1] = system: Burkitt's lymphoma Raji cells; assay: ADCP: phagocytosis of Raji cells by HPMMs, combination with rituximab; assay type: cell-based, human; details: HPMMs effector, Raji target cells, 37° C. 2 h, flow cytometry; FIG. 1
Excerpt: (§1) Materials: Azacitidine (purchased from Baxter Oncology GmbH); Hu5F9-G4 (supplied by Akeso Biopharma, Inc.); Raji cells (Chinese Academy of Sciences Shanghai Branch); HL-60 cells (ATCC); RPMI 1640 (Gibco, Cat. No: 22400-105); pancreatin (0.25% Typsin-EDTA (1×)) (Gibco, Cat. No: 25200072); fetal bovine serum (FBS; Excell bio, Cat. No: FSP500); fluorescent dye […] diacetatesuccinimidyl ester (CFSE; Biolegend, Cat. No: 423801); recombinant human macrophage colony-stimulating factor (human M-CSF; PeproTech, Cat. No: 300-25); APC anti-human CD11c antibody (Biolegend, Cat. No: 301614); isotype control (human IgG4; supplied by Akeso Biopharma, Inc.); rituximab (Roche); BSA (Sigma, Cat. No: V900933-1KG); Ficoll paque plus (GE, Cat. No: 17-1440-02). Human peripheral monocyte-derived macrophages (HPMMs) were prepared by inducing PBMCs. Frozen PBMCs were conventionally thawed and incubated in an incubator overnight. The next day, PBMCs were collected, centrifuged at 170×g for 5 min, resuspended in a 1640 medium containing 2% FBS, and incubated in an incubator for 2 h. […]
Procedures: Raji cells in the logarithmic phase were conventionally collected, centrifuged at 170×g for 5 min, resuspended and then washed once with PBS. […] 200 μL of 1% PBSA was added to each tube for resuspension, and the cells were detected on an FACS Calibur flow cytometer. […]

[2] = system: human prostate cancer LNCAP cells; assay: Immune cell activation: PBMCs with Raji-PDL1 and LNCAP cells, cytokine ELISA; assay type: cell-based; details: SEB-activated PBMCs + Raji-PDL1 + LNCAP cells, 3 days; FIG. 6
[3] = system: human lung adenocarcinoma A549 cells; assay: Immune cell activation: PBMCs with Raji-PDL1 and A549 cells, cytokine ELISA; assay type: cell-based; details: SEB-activated PBMCs + Raji-PDL1 + A549 cells, 3 days; FIG. 4
[4] = system: human ovarian cancer SK-OV-3 cells; assay: Immune cell activation: PBMCs with Raji-PDL1 and SK-OV-3 cells, cytokine ELISA; assay type: cell-based; details: SEB-activated PBMCs + Raji-PDL1 + SK-OV-3 cells, 3 days; FIG. 5
[5] = system: acute myelocytic leukemia (AML) HL-60 cells; assay: ADCP: phagocytosis of HL-60 cells by HPMMs, combination with azacitidine; assay type: cell-based, human; details: HPMMs effector, HL-60 target cells treated with azacitidine 3 μM or 1 μM for 24 h; antibodies 10 μg/mL and 1 μg/mL; FIG. 2
Excerpt: as §1, with “overnight.” for “overnight. The next day, PBMCs were collected, centrifuged at 170×g for 5 min, resuspended in a 1640 medium containing 2% FBS, and incubated in an incubator for 2 h.”
Procedures: HL-60 cells were conventionally collected and plated in a 6-well plate at 4×10^5 cells/2 mL of 1640 complete medium per well. […] The next day, the treated and blank HL-60 cells were collected, centrifuged at 170×g for 5 min, resuspended and counted. Then the cells were analyzed for viability and washed once with PBS. […]

[6] = biological target: T1, CD47 IgV TEV-His (human CD47 mature peptide of positions 19-141 of NP_942088.1, TEV, his tag fusion protein) (human, UniProt Q08722 19-141); assay: indirect ELISA screening with CD47 IgV TEV-His as antigen
T1 construct: range 19-141; Synthesized by Akeso Biopharma; not shown: his tag
Excerpt: Spleen cells of immunized mice were fused with myeloma cells of the mice to prepare hybridoma cells.

CD47 IgV TEV-His = biological target: T2, CD47 IgV TEV-His (Homo sapiens, UniProt Q08722); assay: Indirect ELISA screening for antibodies specifically binding CD47; details: monoclonal antibody secreted by hybridoma LT012
T2 construct: human CD47 mature peptide of positions 19-141 of GenbankID: NP 942088.1; His tag (C); host or cells: mammalian cell expression system (said in general terms)
Excerpt: (§2) The antigen used for preparing the anti-CD47 antibody with the hybridoma cell line 6F7 was CD47 IgV TEV-His (including human CD47 mature peptide of positions 19-141 of GenbankID: NP 942088.1 and TEV (amino acid sequence: ENLYFQG, SEQ ID NO: 74)-his tag fusion protein, synthesized by Akeso Biopharma, Inc.) and 3T3-CD47 cells (NIH/3T3, manufacturer: ATCC, Cat. No: CRL-1658; the human CD47 mature peptide was transfected into the cells on the basis of NIH/3T3 to construct a cell line stably expressing 3T3-CD47). Spleen cells of immunized mice were fused with myeloma cells of the mice to prepare hybridoma cells. […] The hybridoma cells obtained by ELISA screening were screened by competitive ELISA to obtain a hybridoma cell line capable of secreting a monoclonal antibody capable of competing for binding to CD47 IgV TEV-His with the receptor human SIRPαECD-hFc-Biotin (SIRPαECD refers to the extracellular region of SIRPα, positions 31-373 of protein GenBank ACCESSION No. NP_542970.1; hFc refers to a human IgG Fc purification label, specifically to Ig gamma-1 chain C region, positions 114-330 of GenbankID: P01857), which was then subjected to dilution cloning to obtain a stable hybridoma cell line. The hybridoma cell line was designated hybridoma cell line LT012, and the monoclonal antibody secreted by the cell line was designated 6F7.

[7] = biological target: T3, CD47 IgV TEV-His / human SIRPαECD-hFc-Biotin (Homo sapiens, UniProt Q08722); assay: Competitive ELISA against receptor SIRPα ECD-hFc-Biotin for binding to CD47
T3 construct: human CD47 mature peptide of positions 19-141 of GenbankID: NP 942088.1; His tag (C); host or cells: mammalian cell expression system (said in general terms, for CD47 only)
Excerpt: as §2

Molecule: rituximab: anti-human CD20 antibody (Roche) [reference compound]
- phagocytic index (ADCP) [1]: significantly higher than those of the blank control and the isotype control (human IgG4)

Molecule: penpulimab: anti-PD-1 antibody; heavy chain SEQ ID NO: 82, light chain SEQ ID NO: 84 [reference compound]
- secretion of IL-2 by PBMC cells [2]: can significantly stimulate the secretion of IL-2
- secretion of IFN-γ by PBMC cells [3]: can significantly stimulate the secretion of IFN-γ
- secretion of IL-2 by PBMC cells [4]: can significantly stimulate the secretion of IL-2

Molecule: Nc1ncn([C@@H]2O[C@H](CO)[C@@H](O)[C@H]2O)c(=O)n1 [azacitidine]
- phagocytic index (ADCP) [5]: significantly higher than those of the blank control and the isotype control (human IgG4)

- binding result [6]: binds
B1: anti-CD47 monoclonal antibody 6F7 (secreted by hybridoma cell line LT012) (antibody, V domains shown)
VH: QVQLQQPGAELVRPGASVKLSCKASGYTFTSYWMNWVKQRPGQGLEWIGMIDPSDSETHNNQMFKDKATLTVDKSSNTAYMHLSSLTSEDSAVYHCARLYRWYFDVWGAGTTVTVSS
VL: NIVMTQSPKSMSMSLGERVTLSCKASEIVGTYVSWFQQKPHQSPKLLIYGASNRYTGVPDRFTGSGSATDFTLTISNVQAEDLADYHCGQSYNFPYTFGGGTKLEIK
notes: Murine hybridoma antibody; also called CD47-6F7; LT012 antibody

- specific binding to CD47 (CD47 IgV TEV-His): capable of specifically binding to CD47
B2: 6F7: murine anti-CD47 monoclonal antibody secreted by hybridoma LT012; VH SEQ ID NO: 2, VL SEQ ID NO: 4 (antibody, V domains shown)
VH: QVQLQQPGAELVRPGASVKLSCKASGYTFTSYWMNWVKQRPGQGLEWIGMIDPSDSETHNNQMFKDKATLTVDKSSNTAYMHLSSLTSEDSAVYHCARLYRWYFDVWGAGTTVTVSS
VL: NIVMTQSPKSMSMSLGERVTLSCKASEIVGTYVSWFQQKPHQSPKLLIYGASNRYTGVPDRFTGSGSATDFTLTISNVQAEDLADYHCGQSYNFPYTFGGGTKLEIK
modifications: Synthetic artificial sequence-Amino acid sequence of the heavy chain variable region of 6F7; Synthetic artificial sequence-Amino acid sequence of the variable region of the light chain of 6F7
- competition with SIRPα ECD-hFc-Biotin for binding to CD47 [7]: can compete with the receptor SIRPα ECD-hFc-Biotin for binding to CD47
